Data set [1] relates to Plasmodium falciparum. Description: Antimalarial activity against chloroquine-sensitive Plasmodium falciparum 3D7 assessed as reduction in parasite growth incubated for 36 hrs by Giemsa staining based microscopic analysis. It counts as functional, organism-based. Particulars: 3D7, 36 h.
Data set [2] is described as follows: Cytotoxicity against African monkey Vero cells assessed as reduction in cell viability incubated for 72 hrs by MTT assay. It counts as toxicity, cell-based. Particulars: chlorocebus sabaeus.
For data set [3], the system named is Plasmodium falciparum. The data set is described as follows: Antimalarial activity against chloroquine-sensitive Plasmodium falciparum 3D7 assessed as reduction in parasite growth incubated for 72 hrs by SYBR Green staining based fluorescence analysis. It counts as functional, organism-based. The settings on record: 3D7, 72 h.
The test system of data set [4] is Plasmodium falciparum. The data set is described as follows: Antimalarial activity against chloroquine-resistant Plasmodium falciparum K1 assessed as reduction in parasite growth incubated for 72 hrs by SYBR Green staining based fluorescence analysis. In kind it is functional, organism-based. Particulars: K1, 72 h.
The nature of data set [5]: Cytotoxicity against African green monkey Vero cells assessed as reduction in cell viability incubated for 72 hrs by MTT assay. In kind it is toxicity, cell-based. The settings on record: chlorocebus sabaeus. In general terms: Tetrazolium dyes change colour on reduction, which living cells bring about.
Data set [6] concerns Plasmodium falciparum. Description: Antiplasmodial activity against chloroquine-resistant Plasmodium falciparum W2 assessed as parasitic growth inhibition incubated for 72 hrs by SYBR Green staining based fluorescence analysis. Particulars: W2, 72 h. It counts as functional, organism-based.
Data set [7] concerns Hemozoin. Description: Inhibition of Beta-hematin formation in Plasmodium falciparum K1 by spectrophotometric analysis.
The subject of data set [8] is Hemozoin. Description: Inhibition of Beta-hematin formation in Plasmodium falciparum 3D7 by spectrophotometric analysis.

One may read the IC50 as the point on the concentration scale where inhibition reaches its midpoint. The CC50 is the concentration that lowers cell viability or growth by half.

As for `O=C(Cn1cc(COc2ccc(Br)cc2)nn1)NCCNc1ccnc2cc(Cl)ccc12`, in the data set with Plasmodium falciparum [1], the IC50 is 0.04 µM. For the same compound, the CC50 at 72 h in data set [2] was found to be 78.2 µM.

As for `O=C(Cn1cc(COc2ccc(Br)cc2)nn1)NCCCCCCNc1ccnc2cc(Cl)ccc12`, the IC50 in the data set on Plasmodium falciparum [1] is 0.307 µM. In data set [2], the CC50 at 72 h turned out to be 112 µM.

`CN(CCCN1CCCC1)c1ccnc2cc(C(F)(F)F)ccc12`: the IC50 turned out to be 0.09 µM with Plasmodium falciparum [3] and 0.31 µM with Plasmodium falciparum [4]. In addition, in data set [5], the CC50 at 72 h was determined as 78.2 µM.

As for `CN(CCCN1CCCC1)c1ccnc2cc(Cl)ccc12`, the IC50 in the data set on Plasmodium falciparum [3] was determined as 0.19 µM; with Plasmodium falciparum [4], 0.11 µM. For the same compound, the CC50 at 72 h in data set [5] came out at 80.2 µM.

As to `CC(C)CC(CN1CCN(C)CC1)N(C)c1ccnc2cc(Cl)ccc12` (centres undefined), the half-maximal inhibitory concentration (IC50) was found to be 0.06 µM in the data set on Plasmodium falciparum [3] and 0.26 µM in the data set with Plasmodium falciparum [4]. For the same compound, the CC50 at 72 h in data set [5] worked out at 36.6 µM.

For the compound `CN(c1ccnc2cc(Cl)ccc12)C(Cc1ccccc1)CN1CCCCC1` (centres undefined), the IC50 was determined as 0.28 µM in the data set on Plasmodium falciparum [3] and 0.49 µM in the data set with Plasmodium falciparum [4]. The CC50 at 72 h in data set [5] amounted to 69.7 µM.

On to `CN(CCCN1CCCCC1)c1ccnc2cc(Cl)ccc12`, for which the IC50 in the data set with Plasmodium falciparum [3] was determined as 0.04 µM; with Plasmodium falciparum [4] it was 0.06 µM. Further, in data set [5], the CC50 at 72 h worked out at 107 µM.

For the compound `CN(c1ccnc2cc(Cl)ccc12)C(Cc1ccccc1)CN1CCCC1` (centres undefined), the IC50 in the data set with Plasmodium falciparum [3] is 0.06 µM; in the data set with Plasmodium falciparum [4] it was 0.1 µM. In addition, the CC50 at 72 h in data set [5] was 57.8 µM.

In the case of `CC(C)CC(CN1CCOCC1)N(C)c1ccnc2cc(C(F)(F)F)ccc12` (centres undefined), the IC50 in the data set with Plasmodium falciparum [3] stood at 2.72 µM; in the data set with Plasmodium falciparum [4], 2.25 µM. In data set [5], the CC50 at 72 h is 68.6 µM.

On to `CCN(CC)CC(CC(C)C)N(C)c1ccnc2cc(C(F)(F)F)ccc12` (centres undefined), for which the figures for the IC50 in the data set on Plasmodium falciparum [3] and in the data set with Plasmodium falciparum [4] were 3.8 µM and 2.5 µM, respectively. In addition, the CC50 at 72 h in data set [5] worked out at 52 µM.

Regarding `CCN(CC)CC(CC(C)C)N(C)c1ccnc2cc(Cl)ccc12` (centres undefined), the IC50 in the data set with Plasmodium falciparum [3] amounted to 0.23 µM; in the data set on Plasmodium falciparum [4], 0.54 µM. The CC50 at 72 h in data set [5] turned out to be 60.3 µM.

Regarding `CC(C)CC(CN1CCCCC1)N(C)c1ccnc2cc(Cl)ccc12` (centres undefined), the IC50 amounted to 0.15 µM in the data set with Plasmodium falciparum [3] and 0.42 µM with Plasmodium falciparum [4].

Regarding `C[C@H]1[C@@H](O)O[C@@H]2O[C@@]3(C)CC[C@H]4[C@H](C)CC[C@@H]1[C@@]24OO3` [ARTENIMOL], the IC50 in the data set with Plasmodium falciparum [1] is 0.002 µM; in the data set with Plasmodium falciparum [6], 0.001 µM.

As to `CN(CCCN1CCOCC1)c1ccnc2cc(C(F)(F)F)ccc12`, the IC50 with Plasmodium falciparum [3] amounted to 0.88 µM; in the data set on Plasmodium falciparum [4] it was 0.82 µM. For the same compound, the CC50 at 72 h in data set [5] worked out at 200 µM.

Consider `CN(c1ccnc2cc(C(F)(F)F)ccc12)C(Cc1ccccc1)CN1CCCC1` (centres undefined), for which the IC50 in the data set on Plasmodium falciparum [3] is 0.68 µM; in the data set on Plasmodium falciparum [4], 1.77 µM. The CC50 at 72 h in data set [5] came to 39.2 µM.

Turning to `CC(C)CC(CN1CCCC1)N(C)c1ccnc2cc(Cl)ccc12` (centres undefined), the IC50 was found to be 0.08 µM in the data set with Plasmodium falciparum [3] and 0.18 µM in the data set with Plasmodium falciparum [4]. The CC50 at 72 h in data set [5] was found to be 47 µM.

Turning to `CC(C)CC(CN1CCCC1)N(C)c1ccnc2cc(C(F)(F)F)ccc12` (centres undefined), the IC50 in the data set on Plasmodium falciparum [3] was 1.24 µM; in the data set on Plasmodium falciparum [4], 1.6 µM. In data set [5], the CC50 at 72 h was 52 µM.

As to `CC(C)CC(CN1CCOCC1)N(C)c1ccnc2cc(Cl)ccc12` (centres undefined), the IC50 with Plasmodium falciparum [3] was 1.16 µM; in the data set with Plasmodium falciparum [4], 1.19 µM. Further, the CC50 at 72 h in data set [5] turned out to be 50.8 µM.

With `CN(c1ccnc2cc(Cl)ccc12)C(Cc1ccccc1)CN1CCOCC1` (centres undefined), the IC50 amounted to 1.2 µM in the data set on Plasmodium falciparum [3] and 1.38 µM with Plasmodium falciparum [4]. Also, the CC50 at 72 h in data set [5] came out at 33.5 µM.

As for `Clc1ccc2c(NCCn3cncc3-c3ccc4ccccc4n3)ccnc2c1`, the IC50 came to 1.33 µM with Hemozoin [7] and 5 µM in the data set with Hemozoin [8].

As for `OC(c1cc(C(F)(F)F)nc2c(C(F)(F)F)cccc12)C1CCCCN1` (centres undefined) [MEFLOQUINE], the IC50 in the data set with Plasmodium falciparum [6] was 0.024 µM.

As for `CCN(CC)CC(Cc1ccccc1)N(C)c1ccnc2cc(Cl)ccc12` (centres undefined), the IC50 in the data set with Plasmodium falciparum [3] is 0.21 µM; in the data set on Plasmodium falciparum [4] it was 0.33 µM. For the same compound, the CC50 at 72 h in data set [5] turned out to be 79 µM.

For the compound `CN(C)c1ccc(-c2cncn2CCNc2ccnc3cc(Cl)ccc23)cc1`, the figures for the IC50 in the data set with Hemozoin [7] and in the data set on Hemozoin [8] were 1.09 µM and 5 µM, respectively.

Take `CC(C)CC(CN1CCCCC1)N(C)c1ccnc2cc(C(F)(F)F)ccc12` (centres undefined): the IC50 in the data set with Plasmodium falciparum [3] is 2 µM; in the data set with Plasmodium falciparum [4] it was 2.04 µM. Moreover, in data set [5], the CC50 at 72 h turned out to be 42.6 µM.

The values above are taken from ChEMBL document CHEMBL5344418, “Recent developments in antimalarial activities of 4-aminoquinoline derivatives” (Eur J Med Chem, 2023).
